Measurements as given in US20080188421A1, “Hunter-Killer Peptides and Methods of Use” (priority 2004, published 2008).

Legend:
Kaposi's sarcoma cells [1] = experiment: Viability of KS cells (Live/Dead assay); assay type: cell-based; settings: KS cells treated with peptides at 12 ug/mL in DMEM without serum
Description: (§1) KS cells were plated in DMEM with 10% FBS in 96-well plates. Media was replaced with 100 uL of DMEM without serum and cells were treated with peptides at 12 ug/mL: The peptides utilized had two distinct disulfide links and are shown below. The other peptides utilized in the studies and methods for tumor studies are essentially as reported in Nature Medicine 5(9): 1032-1038, 1999, which is incorporated herein by reference in its entirety. Crude peptide was unpurified peptide composed monomer and dimer and other species-oxidized forms of the peptide.

Kaposi's sarcoma cells [2] = experiment: Mitochondrial function in KS cells (WST-1 assay); assay type: cell-based; settings: KS cells treated with peptides at 12 ug/mL; for mitochondrial function (remaining) in treated KS cell culture: function reduced to
Description: as §1
In order to determine the decrease in mitochondrial function in tumor cells targeted with HK-1, which has the structure (CNGRC-GG-d(KLAKLAK)2)2 (SEQ ID NO: 9), Kaposi's sarcoma cells were treated with HK-1, with the corresponding monomeric homing conjugate CNGRC-GG-d(KLAKLAK)2 (SEQ ID NO: 20), with a crude preparation of the CNGRC homing peptide monomers, with an RGD peptide preparation, with a preparation including KLAKLAK (SEQ ID NO: 5) antimicrobial peptides, and with a CNGR control preparation.

mitochondrial membranes = settings: at a concentration of 10 μM; cited from earlier work

Substance	cell death (Kaposi's sarcoma cells [1])	reduction in mitochondrial function (Kaposi's sarcoma cells [2]) [%]	mitochondrial function (remaining) in treated KS cell culture (Kaposi's sarcoma cells [2])	mitochondrial swelling (mitochondrial membranes)
(CNGRC-GG-d(KLAKLAK)2)2 [HK-1]	~50%	63	37%	–
CNGRC-GG-d(KLAKLAK)2	approximately 10%	34	over 65%	–
d(KLAKLAK)2	–	–	–	marked mitochondrial swelling
